Values of other authors in patent US20110123642A1 (priority 2008, published 2011).

SMILES	pKa	pKa^1	pKa^2	pKa^3	pKa^4
O=C(O)CN(CCN(CC(=O)O)CC(=O)O)CC(=O)O [EDTA, reference compound]	10.2				
O=C(O)CN(CC(=O)O)CC(=O)O [NTA, reference compound]	9.7				
O=C([O-])CC[C@@H](C(=O)[O-])N(CC(=O)[O-])CC(=O)[O-].[Na+].[Na+].[Na+].[Na+] [GLDA, L-glutamic acid-N,N-diacetic acid, tetrasodium salt]	9.4	9.4	5.0	3.5	2.6
